Data reported in US10131653B2, “Heterocyclic compound” (TAKEDA PHARMACEUTICAL COMPANY LIMITED, priority 2015, dated 2018).
Like-named read-outs stand apart in the source and are kept apart here.

How the values were obtained:
human OX1 receptor = target: T1, human OX1 receptor (Homo sapiens, UniProt O43613); assay: Measurement of orexin receptor antagonistic activity (calcium fluorescence, FLIPRtetra); format: cell-based; conditions: CHO, read-out: Human Orexin1 receptor inhibition (at 10 μM)
T1 construct: expressed in transfected cells; host or cells: CHO cells
T1 sequence (O43613 1-425): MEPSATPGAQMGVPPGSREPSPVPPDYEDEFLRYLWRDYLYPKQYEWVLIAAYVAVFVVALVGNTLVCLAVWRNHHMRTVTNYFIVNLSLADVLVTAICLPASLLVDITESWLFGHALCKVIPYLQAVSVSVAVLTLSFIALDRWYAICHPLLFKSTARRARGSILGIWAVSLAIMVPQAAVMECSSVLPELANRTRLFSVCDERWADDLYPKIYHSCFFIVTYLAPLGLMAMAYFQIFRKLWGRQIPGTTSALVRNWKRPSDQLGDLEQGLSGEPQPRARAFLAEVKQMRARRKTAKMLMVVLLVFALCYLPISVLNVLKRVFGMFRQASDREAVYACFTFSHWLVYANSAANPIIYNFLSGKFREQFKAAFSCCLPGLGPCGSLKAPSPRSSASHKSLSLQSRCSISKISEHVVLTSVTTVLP
Method: (§1) Measurement of Orexin Receptor Antagonistic Activity
(§2) CHO cells forcibly expressing human OX1 receptor or human OX2 receptor were seeded in each well of 384 well black transparent bottom plate (BD Falcon) at 7,500 cells/well, and cultured for one day in a 5% CO2 incubator at 37° C. […] The plate was stood for 30 min in a 5% CO2 incubator at 37° C., and further stood at room temperature for 30 min. A test compound prepared by diluting with assay buffer B (HBSS, 20 mM HEPES, 0.1% BSA) was added at 10 μL/well, and then OX-A (OX1 receptor, final concentration; 1 nM) or OX-A (OX2 receptor, final concentration; 0.3 nM) was added at 10 μL/well, and the fluorescence value was measured by FLIPRtetra (Molecular Devices) every one sec for 2 min.

human OX2 receptor = target: T2, human OX2 receptor (Homo sapiens, UniProt O43614); assay: as above; format: cell-based; conditions: CHO, read-out: Human Orexin2 receptor inhibition (at 10 μM)
T2 construct: expressed in transfected cells; host or cells: CHO cells
T2 sequence (O43614 1-444): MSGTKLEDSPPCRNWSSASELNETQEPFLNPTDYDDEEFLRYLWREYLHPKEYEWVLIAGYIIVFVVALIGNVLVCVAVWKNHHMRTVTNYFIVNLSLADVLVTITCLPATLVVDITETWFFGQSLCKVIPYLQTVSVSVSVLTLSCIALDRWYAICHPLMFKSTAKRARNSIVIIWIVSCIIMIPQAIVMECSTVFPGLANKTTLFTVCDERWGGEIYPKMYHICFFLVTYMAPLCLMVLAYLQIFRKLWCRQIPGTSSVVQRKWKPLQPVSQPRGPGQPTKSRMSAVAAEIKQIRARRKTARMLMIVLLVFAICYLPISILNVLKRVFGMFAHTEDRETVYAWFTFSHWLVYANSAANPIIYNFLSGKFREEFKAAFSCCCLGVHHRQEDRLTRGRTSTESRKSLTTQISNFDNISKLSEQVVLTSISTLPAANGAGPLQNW
Method: as §1, §2

[1] = 10 μM test compound, CHO cells expressing human OX1 receptor, OX-A 1 nM
[2] = 10 μM test compound, CHO cells expressing human OX2 receptor, OX-A 0.3 nM

inhibition at 10 µM (human OX1 receptor; [1]) | inhibition at 10 µM (human OX2 receptor; [2]) | Structure (SMILES) | inhibition at 10 µM (human OX1 receptor) | inhibition at 10 µM (human OX2 receptor)
16% | 19% | Cc1cc(C)nc(N2CCN(C(=O)c3ccccc3C#N)CCO2)n1 [Example 45, 2-((2-(4,6-dimethylpyrimidin-2-yl)-1,2,5-oxadiazepan-5-yl)carbonyl)benzonitrile] |  | 
4% | 36% | Cc1cc(C)nc(N2CCN(C(=O)c3ccccc3)CCO2)n1 [Example 46, (2-(4,6-dimethylpyrimidin-2-yl)-1,2,5-oxadiazepan-5-yl) (phenyl)methanone] |  | 
23% | 97% | COc1cccc(OC)c1C(=O)N1CCON(c2nc(C)cc(C)n2)CC1 [Example 47, (2,6-dimethoxyphenyl) (2-(4,6-dimethylpyrimidin-2-yl)-1,2,5-oxadiazepan-5-yl)methanone] |  | 
10% | 73% | COc1cccc(F)c1C(=O)N1CCON(c2nc(C)cc(C)n2)CC1 [Example 48, (2-(4,6-dimethylpyrimidin-2-yl)-1,2,5-oxadiazepan-5-yl) (2-fluoro-6-methoxyphenyl) methanone] |  | 
9% | 14% | Cc1cc(C)nc(N2CCN(C(=O)c3cccc(C#N)c3)CCO2)n1 [Example 49, 3-((2-(4,6-dimethylpyrimidin-2-yl)-1,2,5-oxadiazepan-5-yl)carbonyl) benzonitrile] |  | 
3% | -3% | Cc1cc(C)nc(N2CCN(C(=O)c3ccc(C#N)cc3)CCO2)n1 [Example 50, 4-((2-(4,6-dimethylpyrimidin-2-yl)-1,2,5-oxadiazepan-5-yl)carbonyl) benzonitrile] |  | 
22% | 68% | COc1ccccc1C(=O)N1CCON(c2nc(C)cc(C)n2)CC1 [Example 51] |  | 
16% | 96% | COc1ccc(Cl)c(C(=O)N2CCON(c3nc(C)cc(C)n3)CC2)c1 [Example 52, (2-chloro-5-methoxyphenyl) (2-(4,6-dimethylpyrimidin-2-yl)-1,2,5-oxadiazepan-5-yl)methanone] |  | 
9% | 57% | Cc1cc(C)nc(N2CCN(C(=O)c3ccccc3Cl)CCO2)n1 [Example 53, (2-chlorophenyl) (2-(4,6-dimethylpyrimidin-2-yl)-1,2,5-oxadiazepan-5-yl)methanone] |  | 
16% | 84% | Cc1cc(C)nc(N2CCN(C(=O)c3cc(Cl)ccc3Cl)CCO2)n1 [Example 54, (2,5-dichlorophenyl) (2-(4,6-dimethylpyrimidin-2-yl)-1,2,5-oxadiazepan-5-yl)methanone] |  | 
18% | 96% | Cc1cc(C)nc(N2CCN(C(=O)c3cccc(Cl)c3Cl)CCO2)n1 [Example 55, (2,3-dichlorophenyl) (2-(4,6-dimethylpyrimidin-2-yl)-1,2,5-oxadiazepan-5-yl)methanone] |  | 
21% | 96% | Cc1cc(C)nc(N2CCN(C(=O)c3cc(Cl)cc(Cl)c3)CCO2)n1 [Example 56, (3,5-dichlorophenyl) (2-(4,6-dimethylpyrimidin-2-yl)-1,2,5-oxadiazepan-5-yl)methanone] |  | 
 |  | Cc1cc(C)nc(N2CCN(C(=O)c3ccccc3C)CCO2)n1 [Example 57, (2-(4,6-dimethylpyrimidin-2-yl)-1,2,5-oxadiazepan-5-yl) (2-methylphenyl)methanone] | 10% | 58%
 |  | COc1ccc(Cl)cc1C(=O)N1CCON(c2nc(C)cc(C)n2)CC1 [Example 58, (5-chloro-2-methoxyphenyl) (2-(4,6-dimethylpyrimidin-2-yl)-1,2,5-oxadiazepan-5-yl)methanone] | 29% | 99%
 |  | Cc1cc(C)nc(N2CCN(C(=O)c3ccc(Cl)cc3Cl)CCO2)n1 [Example 59, (2,4-dichlorophenyl) (2-(4,6-dimethylpyrimidin-2-yl)-1,2,5-oxadiazepan-5-yl)methanone] | 1% | 65%
 |  | COc1cccc(C(=O)N2CCON(c3nc(C)cc(C)n3)CC2)c1Cl [Example 60, (2-chloro-3-methoxyphenyl) (2-(4,6-dimethylpyrimidin-2-yl)-1,2,5-oxadiazepan-5-yl)methanone] | -1% | 3%
22% | 94% | CCOc1ccccc1C(=O)N1CCON(c2nc(C)cc(C)n2)CC1 [Example 61, (2-(4,6-dimethylpyrimidin-2-yl)-1,2,5-oxadiazepan-5-yl) (2-ethoxyphenyl)methanone] |  | 
2% | 72% | Cc1cc(C)nc(N2CCN(C(=O)c3ccccc3C(F)(F)F)CCO2)n1 [Example 62] |  | 
 |  | COc1c(C#N)cccc1C(=O)N1CCON(c2nc(C)cc(C)n2)CC1 [Example 63, 3-((2-(4,6-dimethylpyrimidin-2-yl)-1,2,5-oxadiazepan-5-yl)carbonyl)-2-methoxybenzonitrile] | 11% | 49%
76% | 101% | Cc1cc(C)nc(N2CCN(C(=O)c3cccc4ccccc34)CCO2)n1 [Example 64, (2-(4,6-dimethylpyrimidin-2-yl)-1,2,5-oxadiazepan-5-yl) (1-naphthyl)methanone] |  | 
 |  | Cc1cc(C)nc(N2CCN(C(=O)c3cccc4ncccc34)CCO2)n1 [Example 65, (2-(4,6-dimethylpyrimidin-2-yl)-1,2,5-oxadiazepan-5-yl) (quinolin-5-yl)methanone] | 9% | 84%
13% | 90% | Cc1cc(C)nc(N2CCN(C(=O)c3cccc4cccnc34)CCO2)n1 [Example 66, (2-(4,6-dimethylpyrimidin-2-yl)-1,2,5-oxadiazepan-5-yl) (quinolin-8-yl)methanone] |  | 
 |  | Cc1cc(C)nc(N2CCN(C(=O)c3cccc4nccnc34)CCO2)n1 [Example 67, (2-(4,6-dimethylpyrimidin-2-yl)-1,2,5-oxadiazepan-5-yl) (quinoxalin-5-yl)methanone] | 5% | 44%
 |  | Cc1cc(C)nc(N2CCN(C(=O)c3cccc4ncc(C)nc34)CCO2)n1 [Example 68, (2-(4,6-dimethylpyrimidin-2-yl)-1,2,5-oxadiazepan-5-yl) (3-methylquinoxalin-5-yl)methanone] | 28% | 87%
 |  | Cc1cc(C)nc(N2CCN(C(=O)c3cccc4nn(C)cc34)CCO2)n1 [Example 69, (2-(4,6-dimethylpyrimidin-2-yl)-1,2,5-oxadiazepan-5-yl) (2-methyl-2H-indazol-4-yl) methanone] | 3% | 45%
 |  | Cc1cc(C)nc(N2CCN(C(=O)c3cccc4nc(C)oc34)CCO2)n1 [Example 70, (2-(4,6-dimethylpyrimidin-2-yl)-1,2,5-oxadiazepan-5-yl) (2-methyl-1,3-benzoxazol-7-yl)methanone] | -6% | 17%
 |  | Cc1cc(C)nc(N2CCN(C(=O)c3cccc4ccn(C)c34)CCO2)n1 [Example 71, (2-(4,6-dimethylpyrimidin-2-yl)-1,2,5-oxadiazepan-5-yl) (1-methyl-1H-indol-7-yl) methanone] | 53% | 99%
34% | 94% | Cc1cc(C)nc(N2CCN(C(=O)c3cccc4c3ccn4C)CCO2)n1 [Example 72, (2-(4,6-dimethylpyrimidin-2-yl)-1,2,5-oxadiazepan-5-yl) (1-methyl-1H-indol-4-yl) methanone] |  | 
 |  | Cc1cc(C)nc(N2CCN(C(=O)c3cccc4nsnc34)CCO2)n1 [Example 73, 2,1,3-benzothiadiazol-4-yl (2-(4,6-dimethylpyrimidin-2-yl)-1,2,5-oxadiazepan-5-yl)methanone] | 13% | 42%
